Reference: EP1586565A1, “Substituted polycyclic aryl and heteroaryl pyrazinones useful for selective inhibition of the coagulation cascade” (Pharmacia Corporation, priority 1999, dated 2000)

Target: T1, TF-VIIa (Homo sapiens, UniProt P08709)
T1 construct: An extrinsic pathway is initiated by the conversion of coagulation factor VII to VIIa by Xa; purchased American Diagnostica, Greenwich CT; Soluble TF was made in house in E. coli
Assay: TF-VIIa Assay
Type: biochemical
Settings: % inhibition at 30 µM (cells with % or %@30, bare 0)

T1 sequence (P08709 213-466 limits assumed): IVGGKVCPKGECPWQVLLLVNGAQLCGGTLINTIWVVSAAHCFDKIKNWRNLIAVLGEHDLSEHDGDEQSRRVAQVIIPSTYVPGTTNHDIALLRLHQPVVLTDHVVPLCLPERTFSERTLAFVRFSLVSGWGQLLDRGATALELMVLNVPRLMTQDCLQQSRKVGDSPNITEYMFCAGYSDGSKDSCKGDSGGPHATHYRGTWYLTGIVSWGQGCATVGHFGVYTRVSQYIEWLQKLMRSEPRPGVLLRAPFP
T1 sequence (P08709 61-212 limits assumed): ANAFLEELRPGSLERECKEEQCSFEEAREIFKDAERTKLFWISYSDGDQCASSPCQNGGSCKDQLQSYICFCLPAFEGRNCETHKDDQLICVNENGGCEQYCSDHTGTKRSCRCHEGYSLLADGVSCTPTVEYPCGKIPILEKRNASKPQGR
T1 sequence (P13726 33-251 partner limits assumed): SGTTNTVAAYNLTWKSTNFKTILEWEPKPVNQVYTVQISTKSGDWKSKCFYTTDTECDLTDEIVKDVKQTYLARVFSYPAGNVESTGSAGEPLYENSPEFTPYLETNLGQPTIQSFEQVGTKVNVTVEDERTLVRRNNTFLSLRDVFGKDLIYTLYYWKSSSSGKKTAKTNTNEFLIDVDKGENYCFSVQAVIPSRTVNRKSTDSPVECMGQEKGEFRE

Row | IC50 or % Inhibition TF-VIIa (30 µM) | SMILES
1 | 33% | N=C(N)c1ccc(CNC(=O)Cn2c(-c3ccc(Cl)cc3)c(Cl)nc(NCc3ccncc3)c2=O)cc1 [1471-19]
2 | 42% | N=C(N)c1ccc(CNC(=O)Cn2c(-c3ccc(Cl)cc3)c(Cl)nc(NCCN3CCOCC3)c2=O)cc1 [1471-20]
3 | 31% | COc1ccc(-c2c(Cl)nc(NCc3ccccc3)c(=O)n2CC(=O)NCc2ccc(C(=N)N)cc2)cc1 [1471-33]
4 | 37% | COc1ccc(-c2c(Cl)nc(NCc3ccncc3)c(=O)n2CC(=O)NCc2ccc(C(=N)N)cc2)cc1 [1471-35]
5 | 11% | COc1ccc(-c2c(Cl)nc(NCCN3CCOCC3)c(=O)n2CC(=O)NCc2ccc(C(=N)N)cc2)cc1 [1471-36]
6 | 39% | COc1ccc(-c2c(Cl)nc(NCCc3ccncc3)c(=O)n2CC(=O)NCc2ccc(C(=N)N)cc2)cc1 [1471-37]
7 | 40% | COc1ccc(-c2c(Cl)nc(NCCc3cccnc3)c(=O)n2CC(=O)NCc2ccc(C(=N)N)cc2)cc1 [1471-40]
8 | 34% | N=C(N)c1ccc(CNC(=O)Cn2c(-c3ccc4c(c3)OCO4)c(Cl)nc(NCCN3CCOCC3)c2=O)cc1 [1471-44]
9 | 4% | CCc1c(Cl)nc(NCCc2cccc(Cl)c2)c(=O)n1CC(=O)NCc1ccc(C(=N)N)cc1 [1471-62]
10 | 25% | N=C(N)c1ccc(CNC(=O)Cn2c(-c3ccccc3)c(Cl)nc(NC(Cc3ccccc3)c3ccccc3)c2=O)cc1 (stereo not shown) [1507-07]
11 | 45% | N=C(N)c1ccc(CNC(=O)Cn2c(-c3ccccc3)c(Cl)nc(NCc3ccc(Cl)cc3Cl)c2=O)cc1 [1507-22]
12 | 38% | N=C(N)c1ccc(CNC(=O)Cn2c(-c3ccccc3)c(Cl)nc(NCc3cccc4ccccc34)c2=O)cc1 [1507-28]
13 | 32% | N=C(N)c1ccc(CNC(=O)Cn2c(-c3ccc(C(F)(F)F)cc3)c(Cl)nc(NC3CCC3)c2=O)cc1 [1515-20]
14 | 8%@30 | N=C(N)c1ccc(CNC(=O)Cn2c(-c3ccc(-c4ccccc4)cc3)c(Cl)nc(NCCc3cccnc3)c2=O)cc1 [Example 21]
15 | 0%@30 | N=C(N)c1ccc(CNC(=O)Cn2c(-c3ccc(-c4ccccc4)cc3)c(Cl)nc(NCCc3ccc(Cl)cc3)c2=O)cc1 [Example 22]

Same assay, conditions: cells printed as bare numbers (IC50); read-out: IC50 or % Inhibition TF-VIIa (30 µM)

Row | IC50 [µM] | SMILES
16 | > 30 | N=C(N)c1ccc(CNC(=O)Cn2c(-c3ccccc3)c(Cl)nc(N3CCC3)c2=O)cc1 [1522-28]

Target: T2, Human factor Xa (Homo sapiens, UniProt P00742)
T2 construct: leads from XII to XIIa to XIa to IXa and to the conversion of X to Xa; purchased Enzyme Research Laboratories, South Bend IN
T2 sequence (P00742 235-488 limits assumed): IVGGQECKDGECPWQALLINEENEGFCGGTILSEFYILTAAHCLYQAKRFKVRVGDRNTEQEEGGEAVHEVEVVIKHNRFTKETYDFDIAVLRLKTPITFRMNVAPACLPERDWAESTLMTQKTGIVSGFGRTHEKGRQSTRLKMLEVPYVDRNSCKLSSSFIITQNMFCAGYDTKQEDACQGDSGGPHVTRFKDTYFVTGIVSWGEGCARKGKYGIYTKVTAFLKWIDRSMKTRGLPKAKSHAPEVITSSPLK
T2 sequence (P00742 41-179 limits assumed): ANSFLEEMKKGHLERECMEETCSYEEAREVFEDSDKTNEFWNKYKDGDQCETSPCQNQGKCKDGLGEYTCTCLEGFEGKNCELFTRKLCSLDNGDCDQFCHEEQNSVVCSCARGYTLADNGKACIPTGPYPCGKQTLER
Assay: Xa Assay
Type: biochemical
Settings: 100 µM

Row | % Inhibition Factor Xa (100 µM) [%] | SMILES
17 | 1 | O=C(Cn1c(-c2ccc(Cl)cc2)c(Cl)nc(NCCc2ccc(Cl)cc2)c1=O)NCCc1ccncc1 [Example E-0020]
18 | 0 | O=C(Cn1c(-c2ccc(Cl)cc2)c(Cl)nc(NCc2ccccc2)c1=O)NCCc1ccncc1 [Example E-0025]
19 | 0 | O=C(Cn1c(-c2ccc(Cl)cc2)c(Cl)nc(NCCc2cccc(Cl)c2)c1=O)NCCc1ccncc1 [Example E-0027]
20 | 0 | O=C(Cn1c(-c2ccc(Cl)cc2)c(Cl)nc(NCCc2ccc(Cl)cc2)c1=O)NCCc1ccncc1 [Example E-0028]
21 | 0 | O=C(Cn1c(-c2ccc(Cl)cc2)c(Cl)nc(NCCc2cccnc2)c1=O)NCCc1ccncc1 [Example E-0029]
22 | 0 | O=C(Cn1c(-c2ccc(Cl)cc2)c(Cl)nc(NCCN2CCOCC2)c1=O)NCCc1ccncc1 [Example E-0031]
23 | 0 | O=C(Cn1c(-c2ccc(Cl)cc2)c(Cl)nc(NCc2ccncc2)c1=O)NCCc1ccncc1 [Example E-0032]
24 | 0 | COc1ccc(-c2c(Cl)nc(NCCc3cccc(Cl)c3)c(=O)n2CC(=O)NCCc2ccncc2)cc1 [Example E-0035]
25 | 0 | O=C(Cn1c(-c2ccc(-c3ccccc3)cc2)c(Cl)nc(NCCc2ccccc2)c1=O)NCCc1ccncc1 [Example E-0050]
26 | 4 | O=C(Cn1c(-c2cccc(Cl)c2)c(Cl)nc(NCCc2cccc(Cl)c2)c1=O)NCCc1cccnc1 [Example E-0080]
27 | 3 | O=C(Cn1c(-c2cccc(Cl)c2)c(Cl)nc(NCCc2ccc(Cl)cc2)c1=O)NCCc1cccnc1 [Example E-0083]
28 | 0 | O=C(Cn1c(-c2cccc(Cl)c2)c(Cl)nc(NCc2ccccc2)c1=O)NCCc1ccncc1 [Example E-0085]
29 | 4 | O=C(Cn1c(-c2cccc(Cl)c2)c(Cl)nc(NCc2ccccc2)c1=O)NCCc1cccnc1 [Example E-0086]
30 | 4 | O=C(Cn1c(-c2cccc(Cl)c2)c(Cl)nc(NCCc2ccccc2)c1=O)NCCc1cccnc1 [Example E-0089]
31 | 3 | O=C(Cn1c(-c2cccc(Cl)c2)c(Cl)nc(NCCc2cccc(Cl)c2)c1=O)NCCc1cccnc1 [Example E-0092]
32 | 4 | O=C(Cn1c(-c2cccc(Cl)c2)c(Cl)nc(NCCc2ccc(Cl)cc2)c1=O)NCCc1cccnc1 [Example E-0095]
33 | 6 | COc1ccc(-c2c(Cl)nc(NCCc3ccccc3)c(=O)n2CC(=O)NCCc2ccncc2)cc1 [Example E-0100]
34 | 3 | COc1ccc(-c2c(Cl)nc(NCCc3cccc(Cl)c3)c(=O)n2CC(=O)NCCc2ccncc2)cc1 [Example E-0103]
35 | 3 | COc1ccc(-c2c(Cl)nc(NCCc3ccc(Cl)cc3)c(=O)n2CC(=O)NCCc2ccncc2)cc1 [Example E-0106]
36 | 3 | O=C(Cn1c(-c2ccc(-c3ccccc3)cc2)c(Cl)nc(NCc2ccccc2)c1=O)NCCc1ccncc1 [Example E-0109]
37 | 3 | O=C(Cn1c(-c2ccc(-c3ccccc3)cc2)c(Cl)nc(NCCc2ccc(Cl)cc2)c1=O)NCCc1ccncc1 [Example E-0118]

Same assay, conditions: % inhibition at 30 µM (cells with % or %@30, bare 0)

Row | IC50 or % Inhibition Factor Xa (30 µM) | SMILES
38 | 26% | N=C(N)c1ccc(CNC(=O)Cn2c(-c3ccc(Cl)cc3)c(Cl)nc(NCc3ccncc3)c2=O)cc1 [1471-19]
39 | 34% | N=C(N)c1ccc(CNC(=O)Cn2c(-c3ccc(Cl)cc3)c(Cl)nc(NCCN3CCOCC3)c2=O)cc1 [1471-20]
40 | 22% | COc1ccc(-c2c(Cl)nc(NCc3ccccc3)c(=O)n2CC(=O)NCc2ccc(C(=N)N)cc2)cc1 [1471-33]
41 | 22% | COc1ccc(-c2c(Cl)nc(NCc3ccncc3)c(=O)n2CC(=O)NCc2ccc(C(=N)N)cc2)cc1 [1471-35]
42 | 6% | COc1ccc(-c2c(Cl)nc(NCCN3CCOCC3)c(=O)n2CC(=O)NCc2ccc(C(=N)N)cc2)cc1 [1471-36]
43 | 7% | COc1ccc(-c2c(Cl)nc(NCCc3ccncc3)c(=O)n2CC(=O)NCc2ccc(C(=N)N)cc2)cc1 [1471-37]
44 | 11% | COc1ccc(-c2c(Cl)nc(NCCc3cccnc3)c(=O)n2CC(=O)NCc2ccc(C(=N)N)cc2)cc1 [1471-40]
45 | 13% | N=C(N)c1ccc(CNC(=O)Cn2c(-c3ccc4c(c3)OCO4)c(Cl)nc(NCCN3CCOCC3)c2=O)cc1 [1471-44]
46 | 0% | CCc1c(Cl)nc(NCCc2cccc(Cl)c2)c(=O)n1CC(=O)NCc1ccc(C(=N)N)cc1 [1471-62]
47 | 0% | N=C(N)c1ccc(CNC(=O)Cn2c(-c3c(Cl)cccc3Cl)c(Cl)nc(NCCc3cccc(Cl)c3)c2=O)cc1 [1517-24]
48 | 0% | N=C(N)c1ccc(CNC(=O)Cn2c(-c3ccccc3)c(Cl)nc(NC3CCCCC3)c2=O)cc1 [1517-25]
49 | 0% | CCCC(CCC)Nc1nc(Cl)c(-c2ccccc2)n(CC(=O)NCc2ccc(C(=N)N)cc2)c1=O [1517-26]
50 | 0% | CC(C)N(C)c1nc(Cl)c(-c2ccccc2)n(CC(=O)NCc2ccc(C(=N)N)cc2)c1=O [1517-31]
51 | 0% | CCCNc1nc(Cl)c(-c2ccccc2)n(CC(=O)NCc2ccc(C(=N)N)cc2)c1=O [1517-33]
52 | 0% | C[Si](C)(C)CNc1nc(Cl)c(-c2ccccc2)n(CC(=O)NCc2ccc(C(=N)N)cc2)c1=O [1517-36]
53 | 0% | CC(C)CCNc1nc(Cl)c(-c2ccccc2)n(CC(=O)NCc2ccc(C(=N)N)cc2)c1=O [1517-40]
54 | 0% | CC(C)(C)CCNc1nc(Cl)c(-c2ccccc2)n(CC(=O)NCc2ccc(C(=N)N)cc2)c1=O [1517-41]

Row | IC50 or % Inhibition Factor Xa (30 µM) | SMILES
55 | 0% | CCCCCNc1nc(Cl)c(-c2ccccc2)n(CC(=O)NCc2ccc(C(=N)N)cc2)c1=O [1517-48]
56 | 6%@30 | N=C(N)c1ccc(CNC(=O)Cn2c(Cc3ccccc3)c(Cl)nc(NCCc3ccccc3)c2=O)cc1 [Example 20]
57 | 0% | N=C(N)NC/C=C\CNC(=O)Cn1c(-c2ccccc2)cnc(NCCc2ccccc2)c1=O [Example 37]
58 | 22% | Nc1n[nH]c2ccc(CNC(=O)Cn3c(-c4ccccc4)cnc(NCCc4ccccc4)c3=O)cc12 [Example 38]
59 | 0% | Nc1n[nH]c2cc(CNC(=O)Cn3c(-c4ccccc4)cnc(NCCc4ccccc4)c3=O)ccc12 [Example 39]
60 | 0% | N=C(N)c1ccc(CNC(=O)Cn2c(-c3cccc(N)c3)c(Cl)nc(NC3CCC3)c2=O)cc1F [Example 40]
61 | 0% | CC(C)Nc1nc(Cl)c(-c2cccc(N)c2)n(CC(=O)NCc2ccc(C(=N)N)c(F)c2)c1=O [Example 42]
62 | 0% | CC(C)Nc1ncc(-c2cccc(N)c2)n(CC(=O)NCc2ccc(C(=N)N)c(F)c2)c1=O [Example 43]
63 | 10% | CC(C)Nc1nc(Cl)c(-c2cccc(N)c2)n(CC(=O)NCCc2ccc(C(=N)N)cc2)c1=O [Example 62]
64 | 19% | COC(=O)c1cccc(-c2c(Cl)nc(NC(C)C)c(=O)n2CC(=O)NCc2ccc(C(=N)N)cc2)c1 [Example 64]
65 | 12% | CC(C)Nc1nc(Cl)c(-c2cccc(C(=O)O)c2)n(CC(=O)NCc2ccc(C(=N)N)cc2)c1=O [Example 65]
66 | 0% | N=C(N)c1ccc(CNC(=O)Cn2c(-c3ccccc3O)c(Cl)nc(NC3CCC3)c2=O)cc1 [Example 66]
67 | 0% | CC(C)Nc1nc(Cl)c(-c2cc(N)ccc2F)n(CC(=O)NCc2ccc(C(=N)N)cc2F)c1=O [compound 73]
68 | 13% | CC(C)Nc1nc(Cl)c(-c2ccc(Cl)nc2)n(CC(=O)NCc2ccc(C(=N)N)cc2F)c1=O [compound 74]
69 | 9% | CC(C)Nc1nc(Cl)c(-c2cccnc2)n(CC(=O)NCc2ccc(C(=N)N)cc2)c1=O [compound 75]
70 | 0% | CSc1ccc(N)cc1-c1c(Cl)nc(NC(C)C)c(=O)n1CC(=O)NCc1ccc(C(=N)N)cc1 [compound 76]
